# Tests used:
# [1] = target: DDD; conditions: DDD of RII / RIIα dimers; read-out: binding constant for DDD; cited from earlier work
# [2] = target: RII isoform of PKA (Homo sapiens, UniProt P13861); conditions: cited from earlier work
# [3] = test system: CAG human myeloma cells; format: in vivo, SCID mice
# Protocol: CAG human myeloma cells are grown in cell culture to a density that allows 1 million cells to be harvested for transplantation to 6-8-week old female SCID mice obtained from Charles River Laboratories (Frederick, MD). The mice are immunosuppressed by pretreatment with fludarabine and cyclophosphamide 3 days before intravenous injection of 5-10 x […] myeloma cells as described in Stein et al. (Blood. 2004; 104:3705-11). Mice are examined daily for signs of distress or hind-leg paralysis, and weighed weekly. Paralysis of the hind legs or a weight loss of ≥ 20% is used as the survival endpoint, when the animals are euthanized. Groups of 8-10 mice are used. […] The effects of combining bortezomib with hR1 are evaluated in the same myeloma model. Treatments are given as two i.p. doses/week for 3 weeks, initiated on day 5 after injection of the myeloma cells. […] Treatment with hR1 at 0.6 mg/mouse repeated twice weekly for 3 weeks increases the median survival time to 60 days. When bortezomib and hR1 treatments are combined, the median survival time is increased further to 79 days for 0.5 mg bortezomib + 0.6 mg hR1, which is significant (P=0.04).
# DDD, sequence (P13861 2-45 limits assumed): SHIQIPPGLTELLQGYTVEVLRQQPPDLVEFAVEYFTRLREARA
# RII isoform of PKA, sequence (P13861 whole entry, canonical isoform): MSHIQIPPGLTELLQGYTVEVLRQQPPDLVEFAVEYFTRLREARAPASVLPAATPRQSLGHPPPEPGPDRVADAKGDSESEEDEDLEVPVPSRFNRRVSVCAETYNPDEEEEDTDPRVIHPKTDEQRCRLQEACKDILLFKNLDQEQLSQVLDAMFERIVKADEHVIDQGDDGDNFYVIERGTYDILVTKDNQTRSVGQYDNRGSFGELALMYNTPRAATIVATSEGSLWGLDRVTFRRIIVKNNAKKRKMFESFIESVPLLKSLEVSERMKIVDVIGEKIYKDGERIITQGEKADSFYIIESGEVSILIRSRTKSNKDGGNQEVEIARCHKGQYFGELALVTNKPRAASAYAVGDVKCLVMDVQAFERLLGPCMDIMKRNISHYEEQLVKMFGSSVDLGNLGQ
compound,measurement,setting,value
QIEYLAKQIVDNAIQQA (SEQ ID NO: 17) [AKAP-IS],Kd,[1],0.4 nM
QIEYVAKQIVDYAIHQA (SEQ ID NO:39) [SuperAKAP-IS],selectivity for the RII isoform of PKA compared with the RI isoform,[2],five order of magnitude higher selectivity
CC(C)C[C@H](NC(=O)[C@H](Cc1ccccc1)NC(=O)c1cnccn1)B(O)O [bortezomib],increase of median survival,"[3]; 0.5 mg/kg, versus untreated control mice",21.2%
same,"tolerability, body-weight loss","[3]; mouse, in vivo, 0.5 mg/kg","well tolerated, with no body-weight loss"
same,median survival,"[3]; two i.p. doses/week for 3 weeks from day 5, bortezomib 0.5 mg/kg, hR1 0.6 mg/mouse, untreated control 33 days",40 days

# Source: patent publication EP2525820B1, “NOVEL CLASS OF MONOSPECIFIC AND BISPECIFIC HUMANIZED ANTIBODIES THAT TARGET THE INSULIN-LIKE GROWTH FACTOR TYPE I RECEPTOR (IGF-1R)” (Immunomedics, Inc., priority 2010, dated 2011)
